The series deals with Phospholipidosis. As to the kind of experiment: Literature-mined public compounds from Kruhlak et al phospholipidosis modelling dataset.

`C[C@@H]1O[C@@H](O[C@@H]2C=C3CC[C@@H]4[C@H](CC[C@]5(C)[C@@H](c6ccc(=O)oc6)CC[C@]45O)[C@@]3(C)CC2)[C@H](O)[C@H](O)[C@H]1O` [PROSCILLARIDIN]: the Phospholipidosis result is recorded as “Negative: based on the absence of positive reported data from WMDD”.

As for `CNCCCC1c2ccccc2C=Cc2ccccc21` [PROTRIPTYLINE], the Phospholipidosis result is reported as “Negative: based on the absence of positive reported data from WMDD”. For `CC(O)Cn1cnc2c1c(=O)n(C)c(=O)n2C` (stereo unspecified) [PROXYPHYLLINE], the Phospholipidosis entry was “Negative: based on the absence of positive reported data from WMDD”. With `CN[C@@H](C)[C@@H](O)c1ccccc1` [PSEUDOEPHEDRINE] the entry was “Negative: based on the absence of positive reported data from WMDD”; with `Clc1ccc(C/C(=C\CN2CCCC2)c2ccccc2)cc1` [PYRROBUTAMINE], “Negative: based on the absence of positive reported data from WMDD”. With `CCN(CC)CCCC(C)Nc1c2ccc(Cl)cc2nc2ccc(OC)cc12` (stereo unspecified) [QUINACRINE] the entry was “Positive: strong inducer confirmed by electron microscopy”; with `CCC1NC(=O)c2cc(S(N)(=O)=O)c(Cl)cc2N1` (stereo unspecified) [QUINETHAZONE], “Negative: based on the absence of positive reported data from WMDD”; with `C=C[C@H]1C[N@@]2CC[C@H]1C[C@@H]2[C@@H](O)c1ccnc2ccc(OC)cc12` [QUINIDINE], “Positive: weak inducer based on presence of foamy macrophages and cytoplasmic vacuolations”.

On to `CC(CN1CC(=O)NC(=O)C1)N1CC(=O)NC(=O)C1` (stereo unspecified) [RAZOXANE], for which the Phospholipidosis entry is recorded as “Negative: based on the absence of positive reported data from WMDD”. The value for `CC1=C(/C=C/C(C)=C/C=C/C(C)=C/CO)C(C)(C)CCC1` [RETINOL] was “Negative: based on the absence of positive reported data from WMDD”; that for `NC(=O)c1ncn([C@@H]2O[C@H](CO)[C@@H](O)[C@H]2O)n1` [RIBAVIRIN] was “Negative: based on the absence of positive reported data from WMDD”. For `Cc1cc2nc3c(=O)[nH]c(=O)nc-3n(C[C@H](O)[C@H](O)[C@H](O)COP(=O)(O)O)c2cc1C` [RIBOFLAVIN 5'-PHOSPHATE], the Phospholipidosis result is reported as “Negative: based on the absence of positive reported data from WMDD”. With `Cc1cc2nc3c(=O)[nH]c(=O)nc-3n(C[C@H](O)[C@H](O)[C@H](O)CO)c2cc1C` [RIBOFLAVIN] the entry was “Negative: based on the absence of positive reported data from WMDD”; with `CCn1nc(C)c2c1C(c1ccccc1)=NCC(=O)N2` [RIPAZEPAM], “Negative: based on the absence of positive reported data from WMDD”.

Take `CN(C)CCc1c[nH]c2ccc(Cn3cncn3)cc12` [RIZATRIPTAN]: the Phospholipidosis entry is on record as “Negative: based on the absence of positive reported data from WMDD”. Turning to `CS(=O)(=O)c1ccc(C2=C(c3ccccc3)C(=O)OC2)cc1` [ROFECOXIB], the Phospholipidosis entry was “Negative: based on the absence of positive reported data from WMDD”. Take `CCCC(=O)O[C@H]1[C@H](C)O[C@@H](O[C@H]2[C@H](N(C)C)[C@@H](O)[C@H](O[C@H]3[C@@H](CC=O)C[C@@H](C)[C@@H](O)/C=C/C=C/C[C@@H](C)OC(=O)C[C@@H](O)[C@@H]3OC)O[C@@H]2C)C[C@@]1(C)OC(=O)CC` [ROKITAMYCIN]: the Phospholipidosis result is reported as “Negative: based on the absence of positive reported data from WMDD”. With `O=C(Oc1ccccc1C(=O)O)c1ccccc1O` [SALSALATE] the entry was “Negative: based on the absence of positive reported data from WMDD”; with `C=CCC1(C(C)CCC)C(=O)NC(=O)NC1=O` (stereo unspecified) [SECOBARBITAL], “Negative: based on the absence of positive reported data from WMDD”; with `C#CCN(C)[C@H](C)Cc1ccccc1` [SELEGILINE], “Negative: based on the absence of positive reported data from WMDD”.

For the molecule `O=C(O)c1cc(O)c2c(c1)[C@@H]([C@H]1c3cc(C(=O)O)cc(O)c3C(=O)c3c(O[C@@H]4O[C@H](CO)[C@@H](O)[C@H](O)[C@H]4O)cccc31)c1cccc(O[C@@H]3O[C@H](CO)[C@@H](O)[C@H](O)[C@H]3O)c1C2=O` [SENNOSIDE B], the Phospholipidosis result is given as “Negative: based on the absence of positive reported data from WMDD”.

For `CN[C@H]1CC[C@@H](c2ccc(Cl)c(Cl)c2)c2ccccc21` [SERTRALINE], the Phospholipidosis result was “Positive: weak inducer based on presence of foamy macrophages and cytoplasmic vacuolations”.

`OC[C@@H](O)[C@@H](O)[C@H](O)[C@@H](O)CO` [SORBITOL]: the Phospholipidosis entry is on record as “Negative: based on the absence of positive reported data from WMDD”. With `CC(C)NCC(O)c1ccc(NS(C)(=O)=O)cc1` (stereo unspecified) [SOTALOL] the entry was “Negative: confirmed by electron microscopy”. With `CN[C@@H]1[C@H](O)[C@H](NC)[C@H]2O[C@@]3(O)C(=O)C[C@@H](C)O[C@H]3O[C@@H]2[C@H]1O` [SPECTINOMYCIN] the entry was “Positive: weak inducer based on presence of foamy macrophages and cytoplasmic vacuolations”; with `O=C1CSC2(CCN(CCCN3c4ccccc4Sc4ccc(Cl)cc43)CC2)N1` [SPICLOMAZINE], “Negative: based on the absence of positive reported data from WMDD”.

On to `N=C(N)c1ccc(/C=C/c2ccc(C(=N)N)cc2)cc1` [STILBAMIDINE], for which the Phospholipidosis entry was “Positive: weak inducer based on presence of foamy macrophages and cytoplasmic vacuolations”.

With `[H]/N=C(/N)N[C@H]1[C@H](O)[C@@H](O)[C@H](O[C@@H]2O[C@@H](C)[C@](O)(C=O)[C@H]2O[C@@H]2O[C@@H](CO)[C@H](O)[C@@H](O)[C@@H]2NC)[C@@H](N/C(N)=N\[H])[C@@H]1O` [STREPTOMYCIN], the Phospholipidosis entry is on record as “Negative: based on the absence of positive reported data from WMDD”.

For `O=C1C[C@@H]2OCC=C3CN4CC[C@]56c7ccccc7N1[C@H]5[C@H]2[C@H]3C[C@H]46` [STRYCHNINE], the Phospholipidosis result is reported as “Negative: based on the absence of positive reported data from WMDD”.

Turning to `O=C(O)CCC(=O)O` [SUCCINIC ACID], the Phospholipidosis result was “Negative: based on the absence of positive reported data from WMDD”. The value for `COc1cc(NS(=O)(=O)c2ccc(N)cc2)nc(OC)n1` [SULFADIMETHOXINE] was “Negative: based on the absence of positive reported data from WMDD”. With `COc1ncnc(NS(=O)(=O)c2ccc(N)cc2)c1OC` [SULFADOXINE] the entry was “Negative: based on the absence of positive reported data from WMDD”. The value for `Cc1cc(NS(=O)(=O)c2ccc(N)cc2)no1` [SULFAMETHOXAZOLE] was “Negative: confirmed by electron microscopy”; that for `O=C1OC(c2ccc(O)c(S(=O)(=O)O)c2)(c2ccc(O)c(S(=O)(=O)O)c2)c2c(Br)c(Br)c(Br)c(Br)c21` [SULFOBROMOPHTHALEIN] was “Negative: based on the absence of positive reported data from WMDD”; that for `Cc1ccc(C(=O)Nc2ccc(S(=O)(=O)O)c3cc(S(=O)(=O)O)cc(S(=O)(=O)O)c23)cc1NC(=O)c1cccc(NC(=O)Nc2cccc(C(=O)Nc3cc(C(=O)Nc4ccc(S(=O)(=O)O)c5cc(S(=O)(=O)O)cc(S(=O)(=O)O)c45)ccc3C)c2)c1` [SURAMIN] was “Positive: weak inducer based on presence of foamy macrophages and cytoplasmic vacuolations”. For `C[N+](C)(C)CCOC(=O)CCC(=O)OCC[N+](C)(C)C` [SUXAMETHONIUM], the Phospholipidosis result was “Negative: based on the absence of positive reported data from WMDD”. With `CC/C(=C(\c1ccccc1)c1ccc(OCCN(C)C)cc1)c1ccccc1` [TAMOXIFEN] the entry was “Positive: strong inducer confirmed by electron microscopy”; with `C[C@]1(Cn2ccnn2)[C@H](C(=O)O)N2C(=O)C[C@H]2S1(=O)=O` [TAZOBACTAM], “Negative: based on the absence of positive reported data from WMDD”; with `COc1cc2nc(N3CCN(C(=O)C4CCCO4)CC3)nc(N)c2cc1OC` (stereo unspecified) [TERAZOSIN], “Negative: based on the absence of positive reported data from WMDD”.

Consider `CN(C/C=C/C#CC(C)(C)C)Cc1cccc2ccccc12` [TERBINAFINE], for which the Phospholipidosis entry is “Negative: based on the absence of positive reported data from WMDD”. The value for `CC(C)(C)NCC(O)c1cc(O)cc(O)c1` (stereo unspecified) [TERBUTALINE] was “Negative: based on the absence of positive reported data from WMDD”; that for `CC1(O)CCC(C(C)(C)O)CC1.O` (stereo unspecified) [TERPIN HYDRATE] was “Negative: based on the absence of positive reported data from WMDD”; that for `CN(C)[C@@H]1C(O)=C(C(N)=O)C(=O)[C@@]2(O)C(O)=C3C(=O)c4c(O)cccc4[C@@](C)(O)[C@H]3C[C@@H]12` [TETRACYCLINE] was “Negative: confirmed by electron microscopy”. Consider `O=C1CCC(N2C(=O)c3ccccc3C2=O)C(=O)N1` (stereo unspecified) [THALIDOMIDE], for which the Phospholipidosis entry is “Negative: based on the absence of positive reported data from WMDD”. With `CS(=O)(=O)c1ccc([C@H](O)[C@@H](COC(=O)CN)NC(=O)C(Cl)Cl)cc1` [THIAMPHENICOL GLYCINATE], the Phospholipidosis entry is given as “Negative: based on the absence of positive reported data from WMDD”. On to `CS(=O)(=O)c1ccc([C@@H](O)[C@@H](CO)NC(=O)C(Cl)Cl)cc1` [THIAMPHENICOL], for which the Phospholipidosis result is “Negative: based on the absence of positive reported data from WMDD”.

As to `CCCC(C)C1(CC)C(=O)NC(=S)NC1=O` (stereo unspecified) [THIOPENTAL], the Phospholipidosis result is listed as “Negative: based on the absence of positive reported data from WMDD”. `CC(=O)OCCN1CCN(CCCN2c3ccccc3Sc3ccc(Cl)cc32)CC1` [THIOPROPAZATE]: the Phospholipidosis result is listed as “Negative: based on the absence of positive reported data from WMDD”.

Consider `CSc1ccc2c(c1)N(CCC1CCCCN1C)c1ccccc1S2` (stereo unspecified) [THIORIDAZINE], for which the Phospholipidosis result was “Positive: weak inducer based on presence of foamy macrophages and cytoplasmic vacuolations”. On to `CN1CCN(CC/C=C2/c3ccccc3Sc3ccc(S(=O)(=O)N(C)C)cc32)CC1` [THIOTHIXENE], for which the Phospholipidosis result was “Negative: based on the absence of positive reported data from WMDD”.

For `O=c1cc[nH]c(=S)[nH]1` [THIOURACIL], the Phospholipidosis entry was “Negative: based on the absence of positive reported data from WMDD”.
